# Source: article PMC8752738, “A propolis-derived small molecule ameliorates metabolic syndrome in obese mice by targeting the CREB/CRTC2 transcriptional complex” (Nature Communications, 2022)
# “And” between values parts separate entries of the source, which are not always exact repeats. Identical values can stand only once. Like-named read-outs stand apart in the source and are kept apart here.
# Tests used:
# [1] = target: T1, GST-CREB / HA-P300 interaction (Homo sapiens, UniProt P16220); assay: GST-CREB pull-down of HA-P300 from HEK293T lysate; format: biochemical; conditions: APC 10 μM
# T1 construct: made in house; host or cells: GST-CREB beads (pGEX5X-1); HA-P300 expressed in HEK293T cells
# T1 sequence (P16220 whole entry): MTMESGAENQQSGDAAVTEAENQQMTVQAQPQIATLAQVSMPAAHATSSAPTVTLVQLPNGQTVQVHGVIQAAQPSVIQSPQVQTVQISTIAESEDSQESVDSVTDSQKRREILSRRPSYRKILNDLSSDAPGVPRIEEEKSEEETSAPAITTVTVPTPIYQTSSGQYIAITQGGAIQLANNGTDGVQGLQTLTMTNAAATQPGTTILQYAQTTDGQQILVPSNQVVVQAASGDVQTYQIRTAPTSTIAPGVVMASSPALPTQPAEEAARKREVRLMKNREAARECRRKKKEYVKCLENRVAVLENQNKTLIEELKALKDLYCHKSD
# T1 sequence (B2RWS6 whole entry partner): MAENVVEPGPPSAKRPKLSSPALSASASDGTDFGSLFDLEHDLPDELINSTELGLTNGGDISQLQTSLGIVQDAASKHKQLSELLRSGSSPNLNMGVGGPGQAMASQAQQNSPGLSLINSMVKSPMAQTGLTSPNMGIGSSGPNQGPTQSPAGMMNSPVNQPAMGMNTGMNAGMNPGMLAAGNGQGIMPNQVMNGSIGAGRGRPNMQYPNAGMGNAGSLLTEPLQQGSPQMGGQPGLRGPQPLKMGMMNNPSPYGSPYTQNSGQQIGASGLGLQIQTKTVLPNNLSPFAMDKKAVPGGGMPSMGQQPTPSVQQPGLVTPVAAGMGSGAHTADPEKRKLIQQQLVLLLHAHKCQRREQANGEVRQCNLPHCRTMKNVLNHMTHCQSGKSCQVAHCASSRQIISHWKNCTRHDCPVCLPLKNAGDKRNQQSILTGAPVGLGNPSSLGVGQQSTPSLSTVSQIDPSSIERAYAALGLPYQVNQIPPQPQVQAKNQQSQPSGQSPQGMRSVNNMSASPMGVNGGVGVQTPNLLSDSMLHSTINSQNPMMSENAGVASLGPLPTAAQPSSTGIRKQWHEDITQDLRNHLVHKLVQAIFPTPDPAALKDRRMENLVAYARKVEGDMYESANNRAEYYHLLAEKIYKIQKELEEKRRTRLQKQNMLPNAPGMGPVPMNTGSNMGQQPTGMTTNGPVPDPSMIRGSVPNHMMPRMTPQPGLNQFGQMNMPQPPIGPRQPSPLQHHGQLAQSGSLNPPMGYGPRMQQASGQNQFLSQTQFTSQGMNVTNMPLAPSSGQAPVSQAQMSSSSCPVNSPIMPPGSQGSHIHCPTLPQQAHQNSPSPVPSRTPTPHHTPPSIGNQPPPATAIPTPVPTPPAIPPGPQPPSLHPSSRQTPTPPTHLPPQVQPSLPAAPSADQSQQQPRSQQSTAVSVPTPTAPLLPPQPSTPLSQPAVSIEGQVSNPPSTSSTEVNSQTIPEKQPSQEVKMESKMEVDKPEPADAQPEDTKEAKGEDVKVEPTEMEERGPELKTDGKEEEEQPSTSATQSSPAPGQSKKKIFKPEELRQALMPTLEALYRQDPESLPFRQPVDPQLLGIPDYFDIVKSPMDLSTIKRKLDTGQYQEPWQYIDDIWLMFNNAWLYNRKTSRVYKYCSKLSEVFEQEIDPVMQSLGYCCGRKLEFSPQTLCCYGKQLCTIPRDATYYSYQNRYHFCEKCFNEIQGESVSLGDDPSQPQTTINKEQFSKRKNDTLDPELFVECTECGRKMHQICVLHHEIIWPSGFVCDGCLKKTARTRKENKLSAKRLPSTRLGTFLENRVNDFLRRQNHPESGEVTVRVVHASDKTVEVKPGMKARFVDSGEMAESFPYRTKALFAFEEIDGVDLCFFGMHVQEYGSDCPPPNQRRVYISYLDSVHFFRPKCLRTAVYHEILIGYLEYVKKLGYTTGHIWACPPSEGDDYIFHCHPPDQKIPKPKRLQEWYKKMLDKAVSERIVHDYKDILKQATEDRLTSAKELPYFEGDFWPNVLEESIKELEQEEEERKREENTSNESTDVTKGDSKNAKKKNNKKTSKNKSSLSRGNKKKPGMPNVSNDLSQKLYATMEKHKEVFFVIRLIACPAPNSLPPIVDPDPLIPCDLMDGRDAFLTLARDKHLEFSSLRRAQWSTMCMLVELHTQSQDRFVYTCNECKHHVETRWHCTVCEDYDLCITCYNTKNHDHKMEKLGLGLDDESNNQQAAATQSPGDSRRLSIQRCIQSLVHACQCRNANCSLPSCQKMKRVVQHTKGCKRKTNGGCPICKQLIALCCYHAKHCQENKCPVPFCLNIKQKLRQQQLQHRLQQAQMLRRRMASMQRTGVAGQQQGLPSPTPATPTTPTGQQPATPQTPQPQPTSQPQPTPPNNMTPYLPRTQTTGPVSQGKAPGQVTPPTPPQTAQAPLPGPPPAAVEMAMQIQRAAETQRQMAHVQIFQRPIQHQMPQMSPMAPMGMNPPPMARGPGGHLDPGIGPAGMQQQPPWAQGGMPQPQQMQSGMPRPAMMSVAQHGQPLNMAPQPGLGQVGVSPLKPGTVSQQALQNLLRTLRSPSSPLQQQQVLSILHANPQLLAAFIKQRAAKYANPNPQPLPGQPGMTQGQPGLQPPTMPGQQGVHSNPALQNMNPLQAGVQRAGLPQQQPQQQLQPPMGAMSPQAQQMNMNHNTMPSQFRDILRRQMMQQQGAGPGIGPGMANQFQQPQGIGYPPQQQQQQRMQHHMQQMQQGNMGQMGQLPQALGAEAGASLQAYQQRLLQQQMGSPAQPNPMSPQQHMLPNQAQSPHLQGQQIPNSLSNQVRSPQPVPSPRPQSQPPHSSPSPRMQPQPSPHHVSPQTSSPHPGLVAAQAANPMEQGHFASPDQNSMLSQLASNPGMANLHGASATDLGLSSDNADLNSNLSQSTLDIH
# Method: 1 Supplementary Figure 2.
# 2 a) Immunoblot of HA-P300 recovered from HEK293T cell lysate using GST-CREB beads. APC
# 3 (10 μM) was incubated with cells for 1-h before FKS (10 nM) stimulation and was included in the
# 4 following pull-down mixtures (n=3). One of two independent experiments presented here.
# 5 b) Immunoblot for recovered GFP-CRTC1 or (c) GFP-CRTC3 immunoprecipitated by MYC-CREB
# 6 from overexpression HEK293T cell line. APC (10 μM) was incubated with cells for 1-h before FKS
# 7 (10 nM) stimulation and was included in the following pull-down mixtures. One of two independent
# 8 experiments presented here.
# 9 d) SPR sonogram traces of APC binding with HIS-CREB proteins immobilized to NTA-chip. The
# 10 concentration series of APC was as indicated.
# 11 e) SPR sonogram traces of APC flowing through HIS-CRTC2-S171A proteins immobilized on
# 12 NTA-chip. The concentration of APC was as indicated.
# 13 f) The luciferase enzymatic activity of HEK293T incubated with APC. Cells over-expressed
# 14 luciferase CRE-Luc reporter and were stimulated by FSK (10 nM) for 5-h before lysis, which was
# 15 then incubated with APC (concentration indicated) for 30 min before luciferase activity determination
# 16 (n=3 per treatment). Data are represented as mean ± SEM. *, p < 0.05; **, p < 0.01; p values were
# 17 determined by one-way ANOVA followed Dunnett’s multiple comparisons test. […]
# [2] = Tissue distribution assay; format: in vivo, mouse; conditions: for concentration at 8 h / concentration at 4 h / concentration at 2 h: male, C57/BL6, mouse, po, 20 mg/kg
# Method: Male C57/BL6 mice (18–20 g, n = 3 in each group) were randomly sorted into treatment groups. Being fasted for 12-h, mice were treated with oral gavage of the compound APC (20 mg/kg, in DMSO/0.5% HMPC, 5/95, v/v). After 2, 4, and 8-h of administration, the animals were sacrificed, respectively, the indicated tissues, including plasma, liver, kidney, muscle, brain, spleen, pancreas, white and brown fat, were collected and preserved at −80 °C. The APC content in samples was analyzed with a liquid chromatography-mass spectrometry/mass spectrometry (LC–MS/MS) system and normalized by protein content.
smiles,measurement,setting,value
"CC(C)=CCc1cc(C=CC(=O)O)cc(CC=C(C)C)c1O [APC, 3,5-diprenyl-4-hydroxycinnamic acid]",association of CREB with P300,[1],little effect
same,content of APC in the liver compared with other tissues,[2]; 2–8 h after one oral dose 20 mg/kg,highest
same,APC content in tissue,"[2]; Brain, 2H, oral, individual mice, * below the detection line, 2 h after oral dose",0* ng/g (2×) and 16.430 ng/g
same,APC content in tissue,"[2]; Brain, 4H, oral, individual mice, * below the detection line",0* ng/g
same,APC content in tissue,"[2]; Brain, 4H, oral, individual mice, * below the detection line, 4 h after oral dose",1.550 ng/g and 4.810 ng/g
same,APC content in tissue,"[2]; Brain, 8H, oral, individual mice, * below the detection line",0* ng/g
same,APC content in tissue,"[2]; BrownFat, 2H, oral, individual mice, 2 h after oral dose",9.800 ng/g and 11.690 ng/g
same,APC content in tissue,"[2]; BrownFat, 4H, oral, individual mice",9.800 ng/g
same,APC content in tissue,"[2]; BrownFat, 4H, oral, individual mice, 4 h after oral dose",14.240 ng/g and 144.870 ng/g
same,APC content in tissue,"[2]; BrownFat, 8H, oral, individual mice",1.740 ng/g and 5.480 ng/g and 3.880 ng/g
same,APC content in tissue,"[2]; Kidney, 2H, oral, individual mice, 2 h after oral dose",23.340 ng/g and 9.890 ng/g and 11.250 ng/g
same,APC content in tissue,"[2]; Kidney, 4H, oral, individual mice",9.550 ng/g
same,APC content in tissue,"[2]; Kidney, 4H, oral, individual mice, 4 h after oral dose",19.740 ng/g and 19.810 ng/g
same,APC content in tissue,"[2]; Kidney, 8H, oral, individual mice",2.260 ng/g and 4.200 ng/g and 7.700 ng/g
same,APC content in tissue,"[2]; Live (liver), 2H, oral, individual mice, 2 h after oral dose",703.950 ng/g and 577.440 ng/g
same,APC content in tissue,"[2]; Live (liver), 4H, oral, individual mice",815.560 ng/g
same,APC content in tissue,"[2]; Live (liver), 4H, oral, individual mice, 4 h after oral dose",1205.720 ng/g
same,APC content in tissue,"[2]; Live (liver), 8H, oral, individual mice",287.680 ng/g and 320.280 ng/g
same,APC content in tissue,"[2]; Muscle, 2H, oral, individual mice, 2 h after oral dose",2.680 ng/g and 4.690 ng/g
same,APC content in tissue,"[2]; Muscle, 4H, oral, individual mice",13.390 ng/g
same,APC content in tissue,"[2]; Muscle, 4H, oral, individual mice, 4 h after oral dose",7.190 ng/g
same,APC content in tissue,"[2]; Muscle, 8H, oral, individual mice",0.000 ng/g and 1.740 ng/g and 1.650 ng/g
same,APC content in tissue,"[2]; Pancreas, 2H, oral, individual mice, 2 h after oral dose",18.050 ng/g and 11.070 ng/g and 26.740 ng/g
same,APC content in tissue,"[2]; Pancreas, 4H, oral, individual mice",33.580 ng/g
same,APC content in tissue,"[2]; Pancreas, 4H, oral, individual mice, 4 h after oral dose",20.040 ng/g and 8.730 ng/g
same,APC content in tissue,"[2]; Pancreas, 8H, oral, individual mice, * below the detection line",10.890 ng/g and 0* ng/g (2×)
same,APC content in tissue,"[2]; Spleen, 2H, oral, individual mice, 2 h after oral dose",10.360 ng/g and 16.550 ng/g
same,APC content in tissue,"[2]; Spleen, 4H, oral, individual mice",12.280 ng/g
same,APC content in tissue,"[2]; Spleen, 4H, oral, individual mice, 4 h after oral dose",22.450 ng/g
same,APC content in tissue,"[2]; Spleen, 8H, oral, individual mice",0.000 ng/g and 12.270 ng/g and 10.910 ng/g
same,APC content in tissue,"[2]; WhiteFat, 2H, oral, individual mice, 2 h after oral dose",10.520 ng/g and 12.290 ng/g
same,APC content in tissue,"[2]; WhiteFat, 4H, oral, individual mice",42.520 ng/g
same,APC content in tissue,"[2]; WhiteFat, 4H, oral, individual mice, 4 h after oral dose",32.220 ng/g
same,APC content in tissue,"[2]; WhiteFat, 8H, oral, individual mice",3.140 ng/g and 8.490 ng/g and 14.550 ng/g
same,APC-PO-heart-plasma,"[2]; heart plasma, PO, 2H, individual mice",28.92 ng/mL and 27.48 ng/mL
same,APC-PO-heart-plasma,"[2]; heart plasma, PO, 4H, individual mice",64.03 ng/mL and 39.57 ng/mL
same,APC-PO-heart-plasma,"[2]; heart plasma, PO, 8H, individual mice",7.56 ng/mL and 19.01 ng/mL and 14.9 ng/mL
same,concentration at 8 h,"[2]; brain, Brain, 8H, oral, individual mice, * below the detection line, read-out: APC content in tissue",0 ng/g
same,concentration at 4 h,"[2]; brain, brain, 4 h after oral, Figure 5l, Y, read-out: average APC content 4 h after oral",3.18 ng/g
same,concentration at 4 h,"[2]; brain, brain, 4 h after oral, Figure 5l, size of bubble, read-out: average APC content 4 h after oral",3.18 ng/g
same,concentration at 4 h,"[2]; brown fat (BF), BF, 4 h after oral, Figure 5l, size of bubble, read-out: average APC content 4 h after oral",56.3 ng/g
same,concentration at 4 h,"[2]; brown fat, BF, 4 h after oral, Figure 5l, Y, read-out: average APC content 4 h after oral",56.3 ng/g
same,concentration at 2 h,"[2]; brown fat, BrownFat, 2H, oral, individual mice, read-out: APC content in tissue",11.1 ng/g
same,concentration at 2 h,"[2]; heart plasma, heart plasma, PO, 2H, individual mice, read-out: APC-PO-heart-plasma",32.1 ng/mL
same,concentration at 4 h,"[2]; heart plasma, heart plasma, PO, 4H, average, read-out: avarage APC, APC-PO-heart-plasma",48.5 ng/mL
same,concentration at 4 h,"[2]; heart plasma, heart plasma, PO, 4H, individual mice, read-out: APC-PO-heart-plasma",41.8 ng/mL
same,concentration at 4 h,"[2]; kidney, kidney, 4 h after oral, Figure 5l, Y, read-out: average APC content 4 h after oral",16.4 ng/g
same,concentration at 4 h,"[2]; kidney, kidney, 4 h after oral, Figure 5l, size of bubble, read-out: average APC content 4 h after oral",16.4 ng/g
same,concentration at 4 h,"[2]; liver, LIVER, 4 h after oral, Figure 5l, Y, read-out: average APC content 4 h after oral",917 ng/g
same,concentration at 4 h,"[2]; liver, LIVER, 4 h after oral, Figure 5l, size of bubble, read-out: average APC content 4 h after oral",917 ng/g
same,concentration at 2 h,"[2]; liver, Live (liver), 2H, oral, individual mice, read-out: APC content in tissue",756 ng/g
same,concentration at 4 h,"[2]; liver, Live (liver), 4H, oral, individual mice, read-out: APC content in tissue",729 ng/g
same,concentration at 8 h,"[2]; liver, Live (liver), 8H, oral, individual mice, read-out: APC content in tissue",178 ng/g
same,concentration at 2 h,"[2]; liver, avarage APC, Live (liver), 2H, oral, average, heading: avarage APC",679 ng/g
same,concentration at 4 h,"[2]; liver, avarage APC, Live (liver), 4H, oral, average, heading: avarage APC",917 ng/g
same,concentration at 2 h,"[2]; muscle, Muscle, 2H, oral, individual mice, read-out: APC content in tissue",3.77 ng/g
same,concentration at 4 h,"[2]; muscle, Muscle, 4H, oral, individual mice, read-out: APC content in tissue",6.73 ng/g
same,concentration at 4 h,"[2]; muscle, Muscle, 4 h after oral, Figure 5l, Y, read-out: average APC content 4 h after oral",9.1 ng/g
same,concentration at 4 h,"[2]; muscle, Muscle, 4 h after oral, Figure 5l, size of bubble, read-out: average APC content 4 h after oral",9.1 ng/g
same,concentration at 4 h,"[2]; pancreas, panc, 4 h after oral, Figure 5l, Y, read-out: average APC content 4 h after oral",20.8 ng/g
same,concentration at 4 h,"[2]; pancreas, panc, 4 h after oral, Figure 5l, size of bubble, read-out: average APC content 4 h after oral",21.2 ng/g
same,concentration at 4 h,"[2]; portal vein plasma, po-portal vein plasma, 4 h after oral, Figure 5l, Y, read-out: average APC content 4 h after oral",48.5 ng/g
same,concentration at 4 h,"[2]; portal vein plasma, po-portal vein plasma, 4 h after oral, Figure 5l, size of bubble, read-out: average APC content 4 h after oral",48.5 ng/g
same,concentration at 2 h,"[2]; spleen, Spleen, 2H, oral, individual mice, read-out: APC content in tissue",15.6 ng/g
same,concentration at 4 h,"[2]; spleen, Spleen, 4H, oral, individual mice, read-out: APC content in tissue",13.8 ng/g
same,concentration at 4 h,"[2]; spleen, spleen, 4 h after oral, Figure 5l, Y, read-out: average APC content 4 h after oral",16.2 ng/g
same,concentration at 4 h,"[2]; spleen, spleen, 4 h after oral, Figure 5l, size of bubble, read-out: average APC content 4 h after oral",16.2 ng/g
same,concentration at 4 h,"[2]; white fat, WF, 4 h after oral, Figure 5l, Y, read-out: average APC content 4 h after oral",32.7 ng/g
same,concentration at 4 h,"[2]; white fat, WF, 4 h after oral, Figure 5l, size of bubble, read-out: average APC content 4 h after oral",32.7 ng/g
same,concentration at 2 h,"[2]; white fat, WhiteFat, 2H, oral, individual mice, read-out: APC content in tissue",18.5 ng/g
same,concentration at 4 h,"[2]; white fat, WhiteFat, 4H, oral, individual mice, read-out: APC content in tissue",23.2 ng/g
